Source: patent publication US20030059451A1, “Use of orally administered dehydroepiandrosterone, precursors and derivatives thereof in order to improve the papery aspect of the skin” (priority 2000, published 2003)

Key:
Type in all cases: in vivo, healthy volunteers (men and women)
[1] = system: healthy volunteers, of both sexes, 60 to 80 years old; experiment: Elasticity of the skin measured with the Derma Torque Meter, randomized double-blind study versus placebo; details: for Elasticity of the skin of the forearm (ratio of extensibility to recovery): ventral side of the forearm
Protocol: (§1) The evaluation was carried out using a randomized double-blind clinical study on 70 individuals (35 men and 35 women). The inclusion criteria were as follows: healthy volunteers, of both sexes, free of any severe pathological condition and 60 to 80 years old.
(§2) The treatment consisted, for 12 months, of a daily dose of 50 mg of DHEA, taken in the morning, in the form of a breakable tablet, for half the individuals, or as a placebo for the other half of the individuals.
The elasticity of the skin was evaluated with the Derma Torque Meter® (DTM® Dia-Stron Limited, Andover, Hampshire, United Kingdom). The biomechanical properties (elasticity) of the skin of the ventral side of the forearm is measured. The DTM® makes it possible to study the response of the skin to a deformation applied in the direction parallel to its surface. The rotation of a disk stuck to the skin is measured and the elasticity of the skin is thus evaluated, which is one of the best markers of aging (Escoffier C. et al. (1989), J. Invest. Dermatol., 93, 353-357).
The elasticity is expressed as the ratio of extensibility to recovery.
(§3) The statistical analysis is performed using the Wilcoxon test.

[2] = system: healthy volunteers, of both sexes, 60 to 80 years old; experiment: Clinical evaluation of the slackening of the skin, randomized double-blind study versus placebo; details: for Slackening of the skin of the forearm (clinical score 0 to 9): ventral side of the forearm
Protocol: as §1, §2
The slackening of the skin is evaluated clinically, blind, on the ventral side of the forearm and on the skin of the face at the start of treatment (T0) and at the end of treatment (T12), by the same clinician. The slackening of the skin is represented by a clinical score ranging from 0 (slight or hardly noticeable slackening) to 9 (very marked slackening). The statistical analysis is performed using the Wilcoxon test.

[3] = system: healthy volunteers, of both sexes, 60 to 80 years old; experiment: Clinical evaluation of the weathered (papyrus-like) appearance of the skin, randomized double-blind study versus placebo; details: 12 months; for variation in the weathered (papyrus-like) appearance relative to T0 (clinical score 0 to 9): back of a hand, 50 mg/day orally, FIG. 1
Protocol: as §1, §2
The weathered (papyrus-like) appearance is evaluated clinically, blind, on the back of a hand at the start of treatment (T0) and at the end of treatment (T12), by the same clinician.
The weathered (papyrus-like) appearance is represented by a clinical score ranging from 0 (weathered appearance absent or only very slightly noticeable) to 9 (very marked weathered appearance).
as §3

[4] = after treatment with DHEA administered orally, 50 mg/day, 12 months

C[C@]12CC[C@H](O)CC1=CC[C@@H]1[C@@H]2CC[C@]2(C)C(=O)CC[C@@H]12 [DHEA, dehydroepiandrosterone]
Elasticity of the skin of the forearm (ratio of extensibility to recovery) ([1]; T0 (start of treatment)): 0.36
Elasticity of the skin of the forearm (ratio of extensibility to recovery) ([1]; T12 (end of treatment), 50 mg/day orally, 12 months, Wilcoxon P = 0.55): 0.31
variation in the elasticity of the skin after treatment [1, 4]: do not significantly vary
Slackening of the skin of the face (clinical score 0 to 9) ([2]; T0 (start of treatment)): 6.69
Slackening of the skin of the forearm (clinical score 0 to 9) ([2]; T0 (start of treatment)): 5.44
Slackening of the skin of the face (clinical score 0 to 9) ([2]; T12 (end of treatment), 50 mg/day orally, 12 months, Wilcoxon P = 0.5): 6.81
Slackening of the skin of the forearm (clinical score 0 to 9) ([2]; T12 (end of treatment), 50 mg/day orally, 12 months, Wilcoxon P = 0.15): 7.19
variation in the slackening of the skin after treatment [2, 4]: do not significantly vary
variation in the weathered (papyrus-like) appearance relative to T0 (clinical score 0 to 9) ([3]; group of men): avoid this degradation
variation in the weathered (papyrus-like) appearance relative to T0 (clinical score 0 to 9) ([3]; group of women, significant relative to placebo (p=0.005)): decrease in the mean scores
effect on the weathered (papyrus-like) appearance of the skin ([3]; overall conclusion, after oral administration, 50 mg/day): improves the weathered (papyrus-like) appearance of the skin
